Laboratory results reported in patent US7358263B2, “Fused bicyclic-substituted amines as histamine-3 receptor ligands” (Abbott Laboratories, priority 2006, dated 2008).

SMILES: C[C@@H]1CCCN1CCc1nc2cc(-c3ccc(C#N)cc3)ccc2o1 [Example 24E, 4-{2-[2-(2-(R)-methyl-pyrrolidin-1-yl)-ethyl]-benzooxazol-5-yl}-benzonitrile]
- melting point: 70 to 72 °C
